# Patent US20260034119A1, “5-METHOXY-N,N-[…][…], THEIR […], AND METHODS FOR TREATMENT OF NEUROLOGICAL, […], AND SUBSTANCE USE DISORDERS” (priority 2023, published 2026)
# “And” between values parts separate entries of the source, which are not always exact repeats. Equal values may be shown once. Read-outs that look alike come from different tables or passages of the source.
# What was measured:
# [1] = target: T1, human 5-HT1A (Homo sapiens, UniProt P08908); assay: 5-HT1A-mediated cAMP reduction assay (GloSensor, HEK293-T)
# T1 sequence (P08908 1-422): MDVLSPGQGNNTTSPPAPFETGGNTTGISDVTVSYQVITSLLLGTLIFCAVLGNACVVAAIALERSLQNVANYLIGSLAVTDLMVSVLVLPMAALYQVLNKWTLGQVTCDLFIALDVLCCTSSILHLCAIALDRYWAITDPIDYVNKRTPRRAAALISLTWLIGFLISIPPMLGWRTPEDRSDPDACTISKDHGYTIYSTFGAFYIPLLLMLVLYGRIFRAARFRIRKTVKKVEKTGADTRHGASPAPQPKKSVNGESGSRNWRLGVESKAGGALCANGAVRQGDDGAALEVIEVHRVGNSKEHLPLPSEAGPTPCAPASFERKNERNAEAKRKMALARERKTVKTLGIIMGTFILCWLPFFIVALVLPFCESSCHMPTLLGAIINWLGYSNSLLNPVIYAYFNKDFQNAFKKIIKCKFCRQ
# [2] = target: T2, 5-HT1A (Homo sapiens, UniProt P08908); assay: BRET signaling assay: 5-HT1A-mediated activation of heterotrimeric Gi1 (TRUPATH, HEK293-T); settings: for Emax: HEK-293T, read-out: Emax, 5-HT1A-mediated activation of Gi1 (BRET); for Efficacy as %5HT 5-HT1A BRET Gi1: Table 6, commercial ligands
# [3] = Mouse brain tissue binding; type: in vitro ADME
# [4] = target: T3, 5-HT2A (Homo sapiens, UniProt P28223); assay: cell-based
# [5] = target: T3, 5-HT2A; settings: for Efficacy as %5HT 5-HT2A BRET Gq: Table 6, commercial ligands
# [6] = target: T1, human 5-HT1A; assay: cell-based
# [7] = target: T2, 5-HT1A; assay: cell-based
# [8] = target: T3, 5-HT2A; assay: cell-based; design: expressed in transfected cells; host or cells: HEK293-T; settings: for Emax: read-out: 5-HT2A (IP1) Emax (%5-HT)
# [9] = target: 5-HT2B (Homo sapiens, UniProt P41595); assay: IP1 functional assay 5-HT2B; type: cell-based; settings: for Emax: read-out: 5-HT2B (IP1) Emax (%5-HT), Table 3
# [10] = EC50 (nM) Mean BRET Gq-2A, Table 2
# [11] = EC50 (nM) Mean BRET Gi1-1A, Table 2
# [12] = EC50 (nM) Mean Gio(cAMP)-1A, Table 2
# [13] = EC50 (nM) 5-HT1A cAMP, Table 6, commercial ligands
# 5-HT2B, sequence (P41595 whole entry, species assumed): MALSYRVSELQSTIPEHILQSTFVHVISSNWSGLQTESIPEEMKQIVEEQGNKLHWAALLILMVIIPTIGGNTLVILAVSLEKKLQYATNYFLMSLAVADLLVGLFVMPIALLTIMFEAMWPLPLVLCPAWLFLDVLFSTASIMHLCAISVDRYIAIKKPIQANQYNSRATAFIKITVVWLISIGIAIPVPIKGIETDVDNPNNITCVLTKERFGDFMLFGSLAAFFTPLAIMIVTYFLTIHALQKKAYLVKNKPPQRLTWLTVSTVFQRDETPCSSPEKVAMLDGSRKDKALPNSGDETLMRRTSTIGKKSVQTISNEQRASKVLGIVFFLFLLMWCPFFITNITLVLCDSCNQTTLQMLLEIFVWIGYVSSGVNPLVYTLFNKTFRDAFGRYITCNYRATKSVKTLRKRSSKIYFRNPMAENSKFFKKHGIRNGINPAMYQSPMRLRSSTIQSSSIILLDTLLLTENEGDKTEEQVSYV
# T3 sequence (P28223 whole entry): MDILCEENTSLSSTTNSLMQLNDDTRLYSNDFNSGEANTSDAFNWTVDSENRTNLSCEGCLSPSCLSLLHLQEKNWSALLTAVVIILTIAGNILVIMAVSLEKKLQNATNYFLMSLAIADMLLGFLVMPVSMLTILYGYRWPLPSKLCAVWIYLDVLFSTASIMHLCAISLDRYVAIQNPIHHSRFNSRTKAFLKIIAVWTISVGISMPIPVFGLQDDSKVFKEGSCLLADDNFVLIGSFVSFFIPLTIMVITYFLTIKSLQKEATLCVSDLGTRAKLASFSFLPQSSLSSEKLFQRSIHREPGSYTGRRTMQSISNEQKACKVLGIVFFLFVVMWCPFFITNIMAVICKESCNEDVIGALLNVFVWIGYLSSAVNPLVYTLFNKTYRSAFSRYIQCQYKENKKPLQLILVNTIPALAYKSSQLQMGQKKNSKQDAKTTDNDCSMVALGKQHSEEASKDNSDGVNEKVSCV
smiles,measurement,setting,value
"O=C1CC2(CCCC2)CC(=O)N1CCCCN1CCN(c2ncccn2)CC1 [Buspirone, buspirone, reference compound]",Efficacy as %5HT 5-HT1A cAMP,"[1]; Table 6, commercial ligands",96.0 %5HT
same,Emax,[2],93.4%
same,Efficacy as %5HT 5-HT1A BRET Gi1,[2],93.4 %5HT
NC(=O)N1c2ccccc2C=Cc2ccccc21 [Carbamazepine],% Bound Mean,[3],88.2%
same,% Recovery,[3],72%
same,% Unbound,[3],11.8%
same,fu,[3],0.118
same,% Compound remaining at 4 h,[3]; 4 h,96%
same,% Bound R1,[3]; replicate R1,89.0%
COc1ccc2[nH]cc(CCN(C)C)c2c1F [Compound 1],EC50,"[1]; pEC50 Gio(cAMP)-1A, Table 2",0.186 nM
same,EC50,[2]; EC50 (nM) Mean BRET Gi1-1A,1.77 nM
same,EC50,[4]; [10],86.5 nM
CCN(C)CCc1c[nH]c2ccc(OC)c(F)c12 [Compound 2],EC50,"[1]; pEC50 Gio(cAMP)-1A, Table 2",0.316 nM
same,EC50,[2]; [11],1.77 nM
same,EC50,[4]; [10],99.3 nM
CCN(CC)CCc1c[nH]c2ccc(OC)c(F)c12 [Compound 3],EC50,[1]; [12],0.21 nM
same,EC50,"[1]; pEC50 Gio(cAMP)-1A, Table 2",0.204 nM
same,EC50,[2]; [11],3.18 nM
same,EC50,[4]; [10],673 nM
CCCN(C)CCc1c[nH]c2ccc(OC)c(F)c12 [Compound 4],EC50,"[1]; pEC50 Gio(cAMP)-1A, Table 2",0.417 nM
same,EC50,[2]; [11],3.06 nM
same,EC50,[4]; [10],115 nM
"NCCc1c[nH]c2ccc(O)cc12 [Compound 5-HT, 5-hydroxytryptamine, reference compound]",Normalized (%5HT) Top Mean Gio(cAMP) 1A,[1]; Table 2,100.0 %5HT
same,Efficacy as %5HT 5-HT1A cAMP,"[1]; Table 6, commercial ligands",100.0 %5HT
same,Normalized (%5HT) Top Mean BRET Gq-2A,[5]; Table 2,100.0 %5HT
same,Efficacy as %5HT 5-HT2A BRET Gq,[5],100.0 %5HT
same,Normalized (%5HT) Top Mean BRET Gi1-1A,[2]; Table 2,100.0 %5HT
same,Efficacy as %5HT 5-HT1A BRET Gi1,[2],100.0 %5HT
CCCN(CC)CCc1c[nH]c2ccc(OC)c(F)c12 [Compound 5],EC50,"[1]; pEC50 Gio(cAMP)-1A, Table 2",0.151 nM
same,EC50,[2]; [11],0.95 nM
same,EC50,[4]; [10],155 nM
CCCN(CCC)CCc1c[nH]c2ccc(OC)c(F)c12 [Compound 6],EC50,[1]; [12],1.31 nM
same,EC50,[2]; [11],3.7 nM
same,EC50,[4]; [10],142 nM
COc1ccc2[nH]cc(CCN(C)C(C)C)c2c1F [Compound 7],EC50,[1]; [12],2.98 nM
same,EC50,[2]; [11],14.2 nM
same,EC50,[4]; [10],152 nM
CCCN(CCc1c[nH]c2ccc(OC)c(F)c12)C(C)C [Compound 8],EC50,[1]; [12],5.96 nM
same,EC50,"[1]; pEC50 Gio(cAMP)-1A, Table 2",5.89 nM
same,EC50,[2]; [11],16.8 nM
same,EC50,"[2]; pEC50 BRET Gi1-1A, Table 2",16.6 nM
same,EC50,[4]; [10],249 nM
CCN(C)CCc1c[nH]c2ccc(OC)cc12 [Compound 9],EC50,[6],4.44 nM
same,EC50,[4],37.7 nM
same,EC50,[7],25.9 nM
COc1ccc2[nH]cc(CCN(C(C)C)C(C)C)c2c1F [Compound 9],EC50,[1]; [12],6 nM
same,EC50,[2]; [11],35.8 nM
same,EC50,[4]; [10],338 nM
"CCCN(C)CCc1c[nH]c2ccc(OC)cc12 [Compound 10, 5-MeO-MPT]",EC50,[8],79 nM
same,Emax,[8],89%
same,EC50,[9],100 nM
same,Emax,[9],61%
C=CCN(C)CCc1c[nH]c2ccc(OC)c(F)c12 [Compound 10],EC50,[1]; [12],2.57 nM
same,EC50,[2]; [11],8.41 nM
same,EC50,[4]; [10],156 nM
CCCN(C)CCc1c[nH]c2ccc(OC)cc12 [Compound 10],EC50,[6],18.6 nM
same,EC50,[4],28.3 nM
same,EC50,[7],60.3 nM
CCN(CC)CCc1c[nH]c2ccc(OC)cc12 [Compound 11],EC50,[6],11 nM
same,EC50,[4],172 nM
same,EC50,[7],37.1 nM
COc1ccc2[nH]cc(CCN3CCCC3)c2c1F [Compound 11],EC50,[1]; [12],0.03 nM
same,EC50,"[1]; pEC50 Gio(cAMP)-1A, Table 2",0.0282 nM
same,EC50,"[2]; pEC50 BRET Gi1-1A, Table 2",0.372 nM
same,EC50,[4]; [10],300 nM
CCCN(CC)CCc1c[nH]c2ccc(OC)cc12 [Compound 12],EC50,[6],2.47 nM
same,EC50,[4],22.1 nM
same,EC50,[7],8.36 nM
COc1ccc2[nH]cc(CCN3CCCCC3)c2c1F [Compound 12],EC50,[1]; [12],2.42 nM
same,EC50,[2]; [11],8.97 nM
"CCCN(CCC)CCc1c[nH]c2ccc(OC)cc12 [Compound 13, 5-methoxy-N,N-dipropyl-tryptamine]",EC50,[8],82 nM
same,Emax,[8],94%
same,EC50,[9],76 nM
same,Emax,[9],108%
CCCN(CCC)CCc1c[nH]c2ccc(OC)cc12 [Compound 13],EC50,[6],3.57 nM and 4.37 nM
same,EC50,[4],20.2 nM
same,EC50,[7],15.4 nM
COc1ccc2[nH]cc(CCN3CC=CC3)c2c1F [Compound 13],EC50,"[1]; pEC50 Gio(cAMP)-1A, Table 2",0.00229 nM
same,EC50,"[2]; pEC50 BRET Gi1-1A, Table 2",0.219 nM
same,EC50,[4]; [10],120 nM
COc1ccc2[nH]cc(CCN(C)C(C)C)c2c1 [Compound 14],EC50,[6],51.8 nM
same,EC50,[4],17.3 nM
same,EC50,[7],112 nM
CCCN(CCc1c[nH]c2ccc(OC)cc12)C(C)C [Compound 15],EC50,[6],26.7 nM
same,EC50,[4],51.2 nM
same,EC50,[7],101 nM and 100 nM
C=CCN(C)CCc1c[nH]c2ccc(OC)cc12 [Compound 16],EC50,[6],9.64 nM
same,EC50,[4],24.5 nM and 25.7 nM
same,EC50,[7],42.7 nM
CN(C)CCc1c[nH]c2ccc(O)c(F)c12 [Compound 16],EC50,"[1]; pEC50 Gio(cAMP)-1A, Table 2",0.251 nM
same,EC50,[2]; [11],1.13 nM
same,EC50,[4]; [10],7.46 nM
COc1ccc2[nH]cc(CCN3CCCC3)c2c1 [Compound 18],EC50,[6],0.16 nM and 0.166 nM
same,EC50,[4],81.5 nM
same,EC50,[7],2.13 nM
"COc1ccc2[nH]cc(CCN3CC=CC3)c2c1 [Compound 21, 3-(2-(2,5-dihydro-1H-pyrrol-1-yl)ethyl)-5-methoxy-1H-indole]",EC50,[2]; Gi BRET EC50,0.3 nM
same,further increase in potency at 5-HT1A,[2]; relative to 5-MeO-PyrT,~8 fold
same,EC50,[4],9.91 nM
same,EC50,[7],0.257 nM
"CCN(CC)CCc1c[nH]c2ccc(OC)c(F)c12 [Compound 27, N,N-diethyl-2-(4-fluoro-5-methoxy-1H-indol-3-yl)ethan-1-amine]",EC50,[6],0.21 nM and 0.204 nM
same,EC50,[4],673 nM
same,EC50,[7],3.18 nM
"COc1ccc2[nH]cc(CCN(C)C(C)C)c2c1F [Compound 31, N-(2-(4-fluoro-5-methoxy-1H-indol-3-yl)ethyl)-N-methylpropan-2-amine]",EC50,[6],2.98 nM
same,EC50,[4],152 nM
same,EC50,[7],14.2 nM
"CCCN(CCc1c[nH]c2ccc(OC)c(F)c12)C(C)C [Compound 32, N-(2-(4-fluoro-5-methoxy-1H-indol-3-yl)ethyl)-N-isopropylpropan-1-amine]",EC50,[6],5.96 nM and 5.89 nM
same,EC50,[4],249 nM
same,EC50,[7],16.8 nM and 16.6 nM
"COc1ccc2[nH]cc(CCN(C(C)C)C(C)C)c2c1F [Compound 33, N-(2-(4-fluoro-5-methoxy-1H-indol-3-yl)ethyl)-N-isopropylpropan-2-amine]",EC50,[6],6 nM
same,EC50,[4],338 nM
same,EC50,[7],35.8 nM
"COc1ccc2[nH]cc(CCN3CCCC3)c2c1F [Compound 35, 4-fluoro-5-methoxy-3-(2-(pyrrolidin-1-yl)ethyl)-1H-indole]",EC50,[6],0.03 nM and 0.0282 nM
same,EC50,[4],300 nM
same,EC50,[7],0.372 nM
"COc1ccc2[nH]cc(CCN3CCCCC3)c2c1F [Compound 36, 4-fluoro-5-methoxy-3-(2-(piperidin-1-yl)ethyl)-1H-indole]",EC50,[6],2.42 nM
same,EC50,[7],8.97 nM
"CN(C)CCc1c[nH]c2ccc(O)cc12 [Compound 49, Bufotenine, reference compound]",EC50,[7],9.29 nM
"CN(C)CCc1c[nH]c2cccc(O)c12 [Compound 52, Psilocin, reference compound]",EC50,[6],512 nM
same,EC50,[7],1080 nM and 1070 nM
CN(C)CCc1c[nH]c2ccccc12 [DMT],EC50,"[5]; Gq BRET, 5-HT2A WT",94.4 nM
same,pEC50,"[5]; Gq BRET, 5-HT2A WT","(7.03,"
"COc1cc(CCN)cc(OC)c1OC [Mescaline, reference compound]",efficacy at 5-HT2A,[5],~100 % of that of serotonin
same,relative potency at 5-HT1A and 5-HT2A,"[5]; BRET, FIG. 33A",more potent at 5-HT2A
same,Efficacy as %5HT 5-HT2A BRET Gq,[5],92.6 %5HT
same,EC50,"[2]; EC50 (nM) 5-HT1A BRET Gi1, Table 6, commercial ligands",19600 nM
same,Efficacy as %5HT 5-HT1A BRET Gi1,[2],42.0 %5HT
same,EC50,"[4]; EC50 (nM) 5-HT2A BRET Gq, Table 6, commercial ligands",2400 nM
"c1ccc2c(N3CCNCC3)cccc2c1 [N-(1-naphthyl)piperazine, N-(1-Napthyl)piperazine, reference compound]",EC50,[1]; [13],50.3 nM
same,Efficacy as %5HT 5-HT1A cAMP,"[1]; Table 6, commercial ligands",137.0 %5HT
"O=C1[C@@H]2[C@H]3CC[C@H](C3)[C@@H]2C(=O)N1CCCCN1CCN(c2ncccn2)CC1 [Tandospirone, reference compound]",EC50,[1]; [13],1.51 nM
same,Efficacy as %5HT 5-HT1A cAMP,"[1]; Table 6, commercial ligands",96.3 %5HT
"N#Cc1ccc2[nH]cc(CCCCN3CCN(c4ccc5oc(C(N)=O)cc5c4)CC3)c2c1 [Vilazodone, vilazodone, reference compound]",Efficacy as %5HT 5-HT1A cAMP,"[1]; Table 6, commercial ligands",110.5 %5HT
same,activity at concentrations as low as,[2]; 5-HT1A Gi1 BRET,30 pM
same,Emax,[2],97.4%
same,Efficacy as %5HT 5-HT1A BRET Gi1,[2],97.4 %5HT
"CN(C)CCc1c[nH]c2cccc(O)c12 [psilocin, Psilocin]",efficacy at 5-HT2A,[5],~50 % of that of serotonin
